Calls of active or inactive are those of the source.
How the values were obtained:
Mus musculus [1] = test: Anti-fibrotic effect in CCl4-induced hepatic fibrosis C57BL/6 mouse model assessed as inhibition of serum AST level at 500 ug/kg, po five times a week for 2 weeks; assay type: functional, organism-based; details: dose 500.0 µg/kg
Mus musculus [2] = test: Anti-fibrotic effect in CCl4-induced hepatic fibrosis C57BL/6 mouse model assessed as reduction the lesions at 500 ug/kg, po five times a week for 2 weeks by Masson's Trichrome staining based assay; assay type: functional, organism-based; details: dose 500.0 µg/kg
Mus musculus [3] = test: Anti-fibrotic effect in improving CCl4-induced hepatic fibrosis C57BL/6 mouse model assessed as inhibition of fibronectin (Fn) expression in liver at 500 ug/kg, po five times a week for 2 weeks by RT-qPCR analysis; assay type: functional, organism-based; details: dose 500.0 µg/kg
Mus musculus [4] = test: Anti-fibrotic effect in bile duct ligation (BDL) surgery-induced hepatic fibrosis C57BL/6 mouse model assessed as reduction the lesions at 500 ug/kg, po five times a week for 2 weeks by Hematoxylin-Eosin (H&E) staining based assay; assay type: functional, organism-based; details: dose 500.0 µg/kg
Mus musculus [5] = test: Anti-fibrotic effect in CCl4-induced hepatic fibrosis C57BL/6 mouse model assessed as inhibition of Timp-1 expression in liver at 500 ug/kg, po five times a week for 2 weeks by RT-qPCR analysis; assay type: functional, organism-based; details: dose 500.0 µg/kg
Mus musculus [6] = test: Anti-fibrotic effect in CCl4-induced hepatic fibrosis C57BL/6 mouse model assessed as inhibition of collagen deposition at 500 ug/kg, po five times a week for 2 weeks by Masson's Trichrome […] staining based assay; assay type: functional, organism-based; details: dose 500.0 µg/kg
[7] = molecular target: T1, Vitamin D3 receptor (Homo sapiens) (UniProt P11473); test: Binding affinity to human full-length Vitamin D receptor assessed as relative binding affinity at 1 uM incubated for 2 hrs by fluorescence polarization based competitive binding assay relative to calcipotriol; details: filed as agonist
T1 sequence (whole entry): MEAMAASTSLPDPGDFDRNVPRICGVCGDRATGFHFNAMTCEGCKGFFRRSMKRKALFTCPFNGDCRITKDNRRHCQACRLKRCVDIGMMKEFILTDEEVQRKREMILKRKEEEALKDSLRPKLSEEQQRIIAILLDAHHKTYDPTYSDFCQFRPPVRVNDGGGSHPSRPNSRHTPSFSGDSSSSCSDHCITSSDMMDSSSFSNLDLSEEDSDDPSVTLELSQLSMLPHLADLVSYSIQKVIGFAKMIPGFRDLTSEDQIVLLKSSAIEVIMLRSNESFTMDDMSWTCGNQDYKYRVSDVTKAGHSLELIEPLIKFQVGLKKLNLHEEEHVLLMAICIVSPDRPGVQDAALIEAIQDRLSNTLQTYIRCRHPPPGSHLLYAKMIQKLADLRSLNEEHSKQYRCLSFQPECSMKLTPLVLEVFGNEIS

[8] = Toxicity in CCl4-induced hepatic fibrosis C57BL/6 mouse model assessed as serum hypercalcemia at 500 ug/kg, po five times a week for 2 weeks by calcium assay kit; assay type: organism-based; details: in vivo, 0.5 mg/kg, 336 h, dose 500 µg/kg
Mus musculus [9] = test: Anti-fibrotic effect in CCl4-induced hepatic fibrosis C57BL/6 mouse model assessed as decrease in inflammatory cell infiltration at 500 ug/kg, po five times a week for 2 weeks by Masson's Trichrome staining based assay; assay type: functional, organism-based; details: dose 500.0 µg/kg
Mus musculus [10] = test: Anti-fibrotic effect in improving CCl4-induced hepatic fibrosis C57BL/6 mouse model assessed as decrease in liver to kidney brightness ratio at 500 ug/kg, po five times a week for 2 weeks by qualitative ultrasound imaging analysis; assay type: functional, organism-based; details: dose 500.0 µg/kg
Mus musculus [11] = test: Anti-fibrotic effect in bile duct ligation (BDL) surgery-induced hepatic fibrosis C57BL/6 mouse model assessed as inhibition of Timp-1 expression in liver at 500 ug/kg, po five times a week for 2 weeks by RT-qPCR analysis; assay type: functional, organism-based; details: dose 500.0 µg/kg
[12] = molecular target: T1, Vitamin D3 receptor (Homo sapiens); test: Agonist activity at Vitamin D receptor in human LX-2 cells assessed as transcriptional activity by measuring induction of CYP24A expression at 0.5 uM by RT-qPCR analysis relative to control; assay type: cell-based; details: filed as agonist
Mus musculus [13] = test: Anti-fibrotic effect in bile duct ligation (BDL) surgery-induced hepatic fibrosis C57BL/6 mouse model assessed as decrease in inflammatory cell infiltration at 500 ug/kg, po five times a week for 2 weeks by Hematoxylin-Eosin (H&E) staining based assay; assay type: functional, organism-based; details: dose 500.0 µg/kg
Mus musculus [14] = test: Anti-fibrotic effect in bile duct ligation (BDL) surgery-induced hepatic fibrosis C57BL/6 mouse model assessed as inhibition of collagen deposition in liver at 500 ug/kg, po five times a week for 2 weeks by Hematoxylin-Eosin (H&E) staining based assay; assay type: functional, organism-based; details: dose 500.0 µg/kg
Mus musculus [15] = test: Anti-fibrotic effect in CCl4-induced hepatic fibrosis C57BL/6 mouse model assessed as reduction in hepatic fibrosis lesions at 500 ug/kg, po five times a week for 2 weeks by Hematoxylin-Eosin (H&E) staining based assay; assay type: functional, organism-based; details: dose 500.0 µg/kg
Mus musculus [16] = test: Anti-fibrotic effect in bile duct ligation (BDL) surgery-induced hepatic fibrosis C57BL/6 mouse model assessed as inhibition of serum total bile acid (TBA) level at 500 ug/kg, po five times a week for 2 weeks; assay type: functional, organism-based; details: dose 500.0 µg/kg
Mus musculus [17] = test: Anti-fibrotic effect in bile duct ligation (BDL) surgery-induced hepatic fibrosis C57BL/6 mouse model assessed as inhibition of fibronectin (Fn) expression in liver at 500 ug/kg, po five times a week for 2 weeks by RT-qPCR analysis; assay type: functional, organism-based; details: dose 500.0 µg/kg
Mus musculus [18] = test: Anti-fibrotic effect in CCl4-induced hepatic fibrosis C57BL/6 mouse model assessed as inhibition of proliferation of fibrous tissue at 500 ug/kg, po five times a week for 2 weeks by Masson's Trichrome […] staining based assay; assay type: functional, organism-based; details: dose 500.0 µg/kg
Mus musculus [19] = test: Anti-fibrotic effect in bile duct ligation (BDL) surgery-induced hepatic fibrosis C57BL/6 mouse model assessed as reduction the lesions at 500 ug/kg, po five times a week for 2 weeks by Masson's Trichrome staining based assay; assay type: functional, organism-based; details: dose 500.0 µg/kg
Mus musculus [20] = test: Anti-fibrotic effect in CCl4-induced hepatic fibrosis C57BL/6 mouse model assessed as decrease in inflammatory cell infiltration at 500 ug/kg, po five times a week for 2 weeks by Hematoxylin-Eosin (H&E) staining based assay; assay type: functional, organism-based; details: dose 500.0 µg/kg
[21] = molecular target: T1, Vitamin D3 receptor (Homo sapiens); test: Agonist activity at Vitamin D receptor in HEK293 cells assessed as receptor transactivation incubated for 48 hrs by dual-luciferase reporter assay; assay type: cell-based; details: filed as agonist, dose 0.01-1 µM
Mus musculus [22] = test: Anti-fibrotic effect in CCl4-induced hepatic fibrosis C57BL/6 mouse model assessed as reduction in hepatic fibrosis lesions at 500 ug/kg, po five times a week for 2 weeks by Masson's Trichrome staining based assay; assay type: functional, organism-based; details: dose 500.0 µg/kg
Mus musculus [23] = test: Anti-fibrotic effect in improving CCl4-induced hepatic fibrosis C57BL/6 mouse model assessed as uniform liver parenchyma at 500 ug/kg, po five times a week for 2 weeks by qualitative ultrasound imaging analysis; assay type: functional, organism-based; details: dose 500.0 µg/kg
Mus musculus [24] = test: Anti-fibrotic effect in CCl4-induced hepatic fibrosis C57BL/6 mouse model assessed as inhibition of proliferation of fibrous tissue at 500 ug/kg, po five times a week for 2 weeks by Hematoxylin-Eosin (H&E) staining based assay; assay type: functional, organism-based; details: dose 500.0 µg/kg
Mus musculus [25] = test: Anti-fibrotic effect in bile duct ligation (BDL) surgery-induced hepatic fibrosis C57BL/6 mouse model assessed as inhibition of collagen deposition in liver at 500 ug/kg, po five times a week for 2 weeks by Masson's Trichrome […] staining based assay; assay type: functional, organism-based; details: dose 500.0 µg/kg
Mus musculus [26] = test: Anti-fibrotic effect in CCl4-induced hepatic fibrosis C57BL/6 mouse model assessed as reduction the lesions at 500 ug/kg, po five times a week for 2 weeks by Hematoxylin-Eosin (H&E) staining based assay; assay type: functional, organism-based; details: dose 500.0 µg/kg

OCc1ccc(/C=C/c2ccc(OCCCC(F)(F)F)cc2)cc1CO
51.4%: RBA [7]
Non-Toxic: Activity [8]
active: Activity (Mus musculus [1]) | Activity (Mus musculus [2]) | Activity (Mus musculus [3]) | Activity (Mus musculus [4]) | Activity (Mus musculus [5]) | Activity (Mus musculus [6]) | Activity (Mus musculus [9]) | Activity (Mus musculus [10]) | Activity (Mus musculus [11]) | Activity [12] | Activity (Mus musculus [13]) | Activity (Mus musculus [14]) | Activity (Mus musculus [15]) | Activity (Mus musculus [16]) | Activity (Mus musculus [17]) | Activity (Mus musculus [18]) | Activity (Mus musculus [19]) | Activity (Mus musculus [20]) | Activity [21] Dose-Dependent Effect | Activity (Mus musculus [22]) | Activity (Mus musculus [23]) | Activity (Mus musculus [24]) | Activity (Mus musculus [25]) | Activity (Mus musculus [26])
